Columns and labels:
[1] = Cytotoxicity evaluation (Cell Titer 96 AQueous One Solution Cell Proliferation Assay); assay type: cell-based; details: human; GS4.1 cells, cellular viability
Description: For cytotoxicity evaluation, GS4.1 cells were treated with compounds as described above and cellular viability was monitored using the Cell Titer 96 AQueous One Solution Cell Proliferation Assay (Promega). CC50 values were determined from the % cytotoxicity versus concentration data with Tecan Magellan software as described above.

[2] = biological target: T1, HCV NS3-NS4A protease (Hepatitis C virus genotype 1a, UniProt P27958); assay: HCV Protease Assay (SensoLyte 620 HCV Protease Assay kit); assay type: biochemical; details: 1.2 nM HCV NS3-NS4A protease, 5% DMSO, 60 min at room temperature
T1 construct: made in house
T1 sequence (P27958 1027-1208): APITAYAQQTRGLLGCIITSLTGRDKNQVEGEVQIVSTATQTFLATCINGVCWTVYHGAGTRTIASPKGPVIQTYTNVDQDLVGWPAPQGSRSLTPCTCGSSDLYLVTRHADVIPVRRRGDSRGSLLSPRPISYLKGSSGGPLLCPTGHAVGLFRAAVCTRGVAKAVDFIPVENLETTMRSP
Description: General procedure: Measurement of the inhibitory effect of compounds on HCV protease activity was performed with the SensoLyte™ 620 HCV Protease Assay kit from AnaSpec, Inc. (San Jose, Calif.) under conditions described by the supplier using 1.2 nM HCV NS3-NS4A protease, which was obtained according to Taremi et al. (Protein Science, 1998, 7, 2143-2149). The compounds were tested at a variety of concentrations in assay buffer containing a final DMSO concentration of 5%. Reactions were allowed to proceed for 60 min at room temperature and fluorescence measurements were recorded with a Tecan Infinity Spectrofluorimeter. The IC50 values were determined from the percent inhibition versus concentration data using a sigmoidal non-linear regression analysis based on four parameters with Tecan Magellan software.

[3] = system: Huh-7 cells containing HCV Con1 subgenomic replicon (GS4.1 cells); assay: HCV Replicon Assay (NS4A ELISA); assay type: cell-based; details: Hepatitis C virus, 72 hr, NS4A protein expression by ELISA
Description: General procedure: Huh-7 cells containing HCV Con1 subgenomic replicon (GS4.1 cells) were grown in Dulbecco's Modified Eagle Medium (DMEM) supplemented with 10% fetal bovine serum (FBS), 2 mM L-glutamine, 110 mg/L sodium pyruvate, 1X non-essential amino acids, 100 U/mL penicillin-streptomycin, and 0.5 mg/mL G418 (Invitrogen). For dose-response testing, the cells were seeded in 96-well plates at 7.5×10^3 cells/well in a volume of 50 μL, and incubated at 37° C./5% CO2. Three hours after plating, 50 μL of ten 2-fold serial dilutions of compounds (highest concentration, 75 μM) were added, and cell cultures were incubated at 37° C./5% CO2 in the presence of 0.5% DMSO. Alternatively, compounds were tested at a single concentration of 15 μM. In all cases, Huh-7 cells lacking the HCV replicon served as negative control. The cells were incubated in the presence of compounds for 72 hr after which they were monitored for expression of the NS4A protein by enzyme-linked immunosorbent assay (ELISA). For this, the plates were then fixed for 1 min with acetone/methanol (1:1, v/v), washed twice with phosphate-buffered saline (PBS), 0.1% Tween 20, blocked for 1 hr at room temperature with TNE buffer containing 10% FBS and then incubated for 2 hr at 37° C. with the anti-NS4A mouse monoclonal antibody A-236 (ViroGen) diluted in the same buffer. After washing three times with PBS, 0.1% Tween 20, the cells were incubated 1 hr at 37° C. with anti-mouse immunoglobulin G-peroxidase conjugate in TNE, 10% FBS. After washing as described above, the reaction was developed with O-phenylenediamine (Zymed). The reaction was stopped after 30 min with 2 N H2SO4, and absorbance was read at 492 nm using Sunrise Tecan spectrophotometer. EC50 values were determined from the % inhibition versus concentration data using a sigmoidal non-linear regression analysis based on four parameters with Tecan Magellan software. When screening at a single concentration, the results were expressed as % inhibition at 15 μM.

CCC1(S(=O)(=O)NC(=O)[C@@]23C[C@H]2/C=C\CCCCN(C)C(=O)N[C@@H](CCOc2cc(-c4nc(C(C)C)cs4)nc4c(Cl)c(OC)ccc24)C(=O)N3)CC1
CC50 [1]: > 1000 µM
IC50 [2]: < 0.1 µM
EC50 [3]: < 0.1 µM

COc1ccc2c(OCC[C@@H]3NC(=O)N(C)CCCC/C=C\[C@@H]4C[C@@]4(C(=O)NS(=O)(=O)C4(C)CC4)NC3=O)cc(-n3ccc(C(F)(F)F)n3)nc2c1Cl
CC50 [1]: > 1000 µM
IC50 [2]: < 0.1 µM
EC50 [3]: < 0.1 µM

COc1ccc2c(OCC[C@@H]3NC(=O)N(C)CCCC/C=C\[C@@H]4C[C@@]4(C(=O)O)NC3=O)cc(-c3ccccc3)nc2c1
CC50 [1]: > 1000 µM
IC50 [2]: 0.1 to 10 µM
EC50 [3]: 10 to 1000 µM

COc1ccc2c(OCC[C@@H]3NC(=O)N(C)CCCC/C=C\[C@@H]4C[C@@]4(C(=O)NS(=O)(=O)N4CCC[C@H]4C#N)NC3=O)cc(-c3nc(C(C)C)cs3)nc2c1Cl
CC50 [1]: > 1000 µM
IC50 [2]: 0.1 to 10 µM
EC50 [3]: 0.1 to 10 µM

COc1ccc2c(OCCC3NC(=O)N(C)CCCC/C=C\C4CC4(C(=O)NS(=O)(=O)N4CCOCC4)NC3=O)cc(-c3nc(C(C)C)cs3)nc2c1Cl (stereo not drawn)
CC50 [1]: > 1000 µM
IC50 [2]: 0.1 to 10 µM
EC50 [3]: 0.1 to 10 µM

CCCn1ccc(-c2cc(OCC[C@@H]3NC(=O)N(C)CCCC/C=C\[C@@H]4C[C@@]4(C(=O)NS(=O)(=O)C4(C)CC4)NC3=O)c3ccc(OC)c(C)c3n2)n1
CC50 [1]: > 1000 µM
IC50 [2]: < 0.1 µM
EC50 [3]: 0.1 to 10 µM

COc1ccc2c(OCC[C@@H]3NC(=O)N(C)CCCC/C=C\[C@@H]4C[C@@]4(C(=O)S(=O)(=O)C4(C)CC4)NC3=O)cc(-c3ccn(Cc4ccccc4)n3)nc2c1C
CC50 [1]: > 1000 µM
IC50 [2]: < 0.1 µM
EC50 [3]: 0.1 to 10 µM

COc1ccc2c(OCC[C@@H]3NC(=O)N(C)CCCC/C=C\[C@@H]4C[C@@]4(C(=O)NS(=O)(=O)C4(C)CC4)NC3=O)cc(-c3cc(C(F)(F)F)nn3C)nc2c1C
CC50 [1]: > 1000 µM
IC50 [2]: < 0.1 µM
EC50 [3]: 0.1 to 10 µM

COc1ccc2c(OCC[C@@H]3NC(=O)N(C)CCCC/C=C\[C@@H]4C[C@@]4(C(=O)NS(=O)(=O)C4CC4)NC3=O)cc(-c3nc(C(C)C)cs3)nc2c1F
CC50 [1]: > 1000 µM
IC50 [2]: < 0.1 µM
EC50 [3]: 10 to 1000 µM

CCn1ccc(-c2cc(OCC[C@@H]3NC(=O)N(C)CCCC/C=C\[C@@H]4C[C@@]4(C(=O)OS(=O)(=O)C4(C)CC4)NC3=O)c3ccc(OC)c(C)c3n2)n1
CC50 [1]: > 1000 µM
IC50 [2]: < 0.1 µM
EC50 [3]: 0.1 to 10 µM

C#C[C@@H]1CCCN1S(=O)(=O)NC(=O)[C@@]12C[C@H]1/C=C\CCCCN(C)C(=O)N[C@@H](CCOc1cc(-c3nc(C(C)C)cs3)nc3c(Cl)c(OC)ccc13)C(=O)N2
CC50 [1]: > 1000 µM
IC50 [2]: < 0.1 µM
EC50 [3]: 0.1 to 10 µM

COc1ccc2c(OCC[C@@H]3NC(=O)N(C)CCCC/C=C\[C@@H]4C[C@@]4(C(=O)NS(=O)(=O)C4CC4)NC3=O)cc(-c3ccccc3)nc2c1
CC50 [1]: > 1000 µM
IC50 [2]: < 0.1 µM
EC50 [3]: 0.1 to 10 µM

COc1ccc2c(OCCC3NC(=O)N(C)CCCC/C=C\C4CC4(C(=O)NS(=O)(=O)C4(C)CC4)NC3=O)cc(-c3nc(C(C)C)cs3)nc2c1Br (stereo not drawn)
CC50 [1]: > 1000 µM
IC50 [2]: < 0.1 µM
EC50 [3]: < 0.1 µM

COc1ccc2c(OCC[C@@H]3NC(=O)N(C)CCCC/C=C\[C@@H]4C[C@@]4(C(=O)NS(=O)(=O)C4(C)CC4)NC3=O)cc(-n3ccc(C(C)C)n3)nc2c1Cl
CC50 [1]: > 1000 µM
IC50 [2]: < 0.1 µM
EC50 [3]: < 0.1 µM

COc1ccc2c(OCC[C@@H]3NC(=O)N(C)CCCC/C=C\[C@@H]4C[C@@]4(C(=O)NS(=O)(=O)C4(I)CC4)NC3=O)cc(-c3nc(C(C)C)cs3)nc2c1C
CC50 [1]: > 1000 µM
IC50 [2]: < 0.1 µM
EC50 [3]: 0.1 to 10 µM

COc1ccc2c(OCC[C@@H]3NC(=O)N(C)CCCC/C=C\[C@@H]4C[C@@]4(C(=O)NS(=O)(=O)C4CC4)NC3=O)cc(-c3nc(C(C)C)cs3)nc2c1Cl
CC50 [1]: > 1000 µM
IC50 [2]: < 0.1 µM
EC50 [3]: < 0.1 µM

COc1ccc2c(C(=O)OCC[C@@H]3NC(=O)N(C)CCCC/C=C\[C@@H]4C[C@@]4(C(=O)NS(=O)(=O)C4CC4)NC3=O)cc(-c3ccccc3)nc2c1
CC50 [1]: > 1000 µM
IC50 [2]: 0.1 to 10 µM
EC50 [3]: > 1000 µM

COc1ccc2c(OCC[C@@H]3NC(=O)N(C)CCCC/C=C\[C@@H]4C[C@@]4(C(=O)NS(=O)(=O)C4(C)CC4)NC3=O)cc(-c3ccn(CCN4CCOCC4)n3)nc2c1C
CC50 [1]: > 1000 µM
IC50 [2]: < 0.1 µM
EC50 [3]: 0.1 to 10 µM

COc1ccc2c(OCC[C@@H]3NC(=O)N(C)CCCC/C=C\[C@@H]4C[C@@]4(C(=O)NS(=O)(=O)N4CCC(F)(F)C4)NC3=O)cc(-c3nc(C(C)C)cs3)nc2c1Cl
CC50 [1]: > 1000 µM
IC50 [2]: 0.1 to 10 µM
EC50 [3]: 0.1 to 10 µM

COc1ccc2c(OCC[C@@H]3NC(=O)N(C)CCCC/C=C\[C@@H]4C[C@@]4(C(=O)NS(=O)(=O)C4(C)CC4)NC3=O)cc(-c3ccn(CC(C)C)n3)nc2c1C
CC50 [1]: > 1000 µM
IC50 [2]: < 0.1 µM
EC50 [3]: 0.1 to 10 µM

COc1ccc2c(OCCC3NC(=O)N(C)CCCC/C=C\C4CC4(C(=O)NS(=O)(=O)C4(F)CC4)NC3=O)cc(-c3nc(C(C)C)cs3)nc2c1Cl (stereo not drawn)
CC50 [1]: > 1000 µM
IC50 [2]: < 0.1 µM
EC50 [3]: 0.1 to 10 µM

COc1ccc2c(OCC[C@@H]3NC(=O)N(C)CCCC/C=C\[C@@H]4C[C@@]4(C(=O)NS(=O)(=O)C4(C)CC4)NC3=O)cc(-c3nc(C(C)C)cs3)nc2c1C
CC50 [1]: > 1000 µM
IC50 [2]: < 0.1 µM
EC50 [3]: < 0.1 µM

COc1ccc2c(OCCC3NC(=O)N(C)CCCC/C=C\C4CC4(C(=O)NS(=O)(=O)N(C)C)NC3=O)cc(-c3nc(C(C)C)cs3)nc2c1Cl (stereo not drawn)
CC50 [1]: > 1000 µM
IC50 [2]: < 0.1 µM
EC50 [3]: < 0.1 µM

COc1ccc2c(OCC[C@@H]3NC(=O)N(C)CCCC/C=C\[C@@H]4C[C@@]4(C(=O)NS(=O)(=O)C4(CC5CC5)CC4)NC3=O)cc(-c3nc(C(C)C)cs3)nc2c1Cl
CC50 [1]: > 1000 µM
IC50 [2]: < 0.1 µM
EC50 [3]: 0.1 to 10 µM

COc1ccc2c(OCC[C@@H]3NC(=O)N(C)CCCC/C=C\[C@@H]4C[C@@]4(C(=O)OS(=O)(=O)C4(C)CC4)NC3=O)cc(-n3ccc(C(F)(F)F)n3)nc2c1C
CC50 [1]: > 1000 µM
IC50 [2]: < 0.1 µM
EC50 [3]: < 0.1 µM

COc1ccc2c(OCC[C@@H]3NC(=O)N(C)CCCC/C=C\[C@@H]4C[C@@]4(C(=O)NS(=O)(=O)C4(C)CC4)NC3=O)cc(-n3ccc(C(C)C)n3)nc2c1C
CC50 [1]: > 1000 µM
IC50 [2]: < 0.1 µM
EC50 [3]: < 0.1 µM

COc1ccc2c(OCC[C@@H]3NC(=O)N(C)CCCC/C=C\[C@@H]4C[C@@]4(C(=O)NS(=O)(=O)C4(C)CC4)NC3=O)cc(-c3nc(C(C)C)cs3)nc2c1Cl
CC50 [1]: > 1000 µM
IC50 [2]: < 0.1 µM
EC50 [3]: < 0.1 µM

CC(=O)OCC[C@@H]1NC(=O)N(C)CCCC/C=C\[C@@H]2C[C@@]2(C(=O)NS(=O)(=O)C2CC2)NC1=O
CC50 [1]: > 1000 µM
IC50 [2]: 0.1 to 10 µM
EC50 [3]: > 1000 µM

COc1ccc2c(OCC[C@@H]3NC(=O)N(C)CCCC/C=C\[C@@H]4C[C@@]4(C(=O)NS(=O)(=O)C4(C)CC4)NC3=O)cc(-c3nc(C(C)C)cs3)nc2c1
CC50 [1]: 10 to 1000 µM
IC50 [2]: < 0.1 µM
EC50 [3]: < 0.1 µM

COc1ccc2c(OCC[C@@H]3NC(=O)N(C)CCCC/C=C\[C@@H]4C[C@@]4(C(=O)NS(=O)(=O)C4(C)CC4)NC3=O)cc(-c3ccn(CCC(C)C)n3)nc2c1C
CC50 [1]: > 1000 µM
IC50 [2]: < 0.1 µM
EC50 [3]: 0.1 to 10 µM

COc1ccc2c(OCC[C@@H]3NC(=O)N(C)CCCC/C=C\[C@@H]4C[C@@]4(C(=O)NS(=O)(=O)C4(C)CC4)NC3=O)cc(-c3csc(NC(C)C)n3)nc2c1
CC50 [1]: > 1000 µM
IC50 [2]: < 0.1 µM
EC50 [3]: 0.1 to 10 µM

COc1ccc2c(OCCC3NC(=O)N(C)CCCC/C=C\C4CC4(C(=O)NS(=O)(=O)C4(C#N)CC4)NC3=O)cc(-c3nc(C(C)C)cs3)nc2c1Cl (stereo not drawn)
CC50 [1]: > 1000 µM
IC50 [2]: < 0.1 µM
EC50 [3]: 0.1 to 10 µM

C#CC1(S(=O)(=O)NC(=O)C23CC2/C=C\CCCCN(C)C(=O)NC(CCOc2cc(-c4nc(C(C)C)cs4)nc4c(Cl)c(OC)ccc24)C(=O)N3)CC1 (stereo not drawn)
CC50 [1]: > 1000 µM
IC50 [2]: < 0.1 µM
EC50 [3]: < 0.1 µM

COc1ccc2c(OCCC3NC(=O)N(C)CCCC/C=C\C4CC4(C(=O)NS(=O)(=O)C4(C)CC4)NC3=O)cc(-c3nc(C(C)C)cs3)nc2c1F (stereo not drawn)
CC50 [1]: > 1000 µM
IC50 [2]: < 0.1 µM
EC50 [3]: 0.1 to 10 µM
